Measured values published in patent US9023789B2, “Amylin analogs and pharmaceutical compositions thereof” (Novo Nordisk A/S, priority 2012, dated 2015).
Read-outs that look alike come from different tables or passages of the source. Numbered stars: 1 amine (or outer) side, 2 acyl side, 3 side chain; on linkers, the order of the positions; unused ones are H or OH. Bridge positions count the residues as written; N and C are the ends. Side chains are listed from the residue outwards. Peptide text beside a SMILES is read from it. * marks the point of attachment. C20 diacid = O=C(O)CCCCCCCCCCCCCCCCCCC(=O)*; γGlu = O=C(O)[C@H](CCC(=O)[*:2])N[*:1]

Key:
[1] = molecular target: T1, human amylin receptor (membranes from Amylin 3(a)/CRE-luc cells) (Homo sapiens, UniProt O60896+P30988); experiment: ASSAY (V) binding to the human amylin receptor (SPA, 125I-rat amylin);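 note: competition binding of cell membranes (35 ng/µL) mixed with SPA beads in 384-well plates at 40 µL total volume, read by scintillation counting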
T1 construct: expressed in transfected cells
T1 sequence (P30988 25-474): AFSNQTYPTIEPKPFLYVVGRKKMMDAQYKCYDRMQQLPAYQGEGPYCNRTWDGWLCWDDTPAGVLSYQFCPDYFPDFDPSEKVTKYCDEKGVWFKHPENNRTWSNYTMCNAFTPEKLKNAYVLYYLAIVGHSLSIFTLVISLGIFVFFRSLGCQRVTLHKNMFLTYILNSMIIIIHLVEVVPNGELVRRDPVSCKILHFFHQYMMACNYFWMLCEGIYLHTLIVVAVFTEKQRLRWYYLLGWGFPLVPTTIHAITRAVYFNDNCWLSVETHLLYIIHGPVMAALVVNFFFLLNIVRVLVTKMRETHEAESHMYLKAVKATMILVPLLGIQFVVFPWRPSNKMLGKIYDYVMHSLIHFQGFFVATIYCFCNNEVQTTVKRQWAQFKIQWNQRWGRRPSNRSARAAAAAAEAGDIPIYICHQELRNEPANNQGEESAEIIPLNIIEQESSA
T1 sequence (O60896 24-148 partner): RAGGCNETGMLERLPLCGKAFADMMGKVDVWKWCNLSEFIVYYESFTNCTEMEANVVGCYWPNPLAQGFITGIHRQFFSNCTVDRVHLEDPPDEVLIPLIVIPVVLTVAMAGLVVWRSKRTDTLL

rat calcitonin receptor = molecular target: T2, rat calcitonin receptor (Rattus norvegicus, UniProt P32214); experiment: ASSAY (VIII) binding to the rat calcitonin receptor; conditions: Table 7, read-out: rCTR bind IC50
T2 construct: expressed in transfected cells; host or cells: BHK tk'ts 13 (transient, FuGENE 6), membranes
T2 sequence (P32214 25-479 isoform P32214-2 limits assumed): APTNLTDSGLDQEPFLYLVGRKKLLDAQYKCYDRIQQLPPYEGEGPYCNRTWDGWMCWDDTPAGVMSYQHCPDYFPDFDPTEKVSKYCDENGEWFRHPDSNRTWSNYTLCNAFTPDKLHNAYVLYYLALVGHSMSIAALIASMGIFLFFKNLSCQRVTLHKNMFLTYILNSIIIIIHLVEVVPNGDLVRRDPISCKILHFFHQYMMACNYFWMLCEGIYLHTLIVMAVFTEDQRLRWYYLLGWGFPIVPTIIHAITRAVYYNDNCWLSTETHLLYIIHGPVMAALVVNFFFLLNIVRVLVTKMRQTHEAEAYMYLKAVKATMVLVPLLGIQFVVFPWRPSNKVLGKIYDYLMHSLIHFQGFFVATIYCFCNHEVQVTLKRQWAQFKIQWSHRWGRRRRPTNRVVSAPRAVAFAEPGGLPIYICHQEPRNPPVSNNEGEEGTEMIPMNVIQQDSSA
In short: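 Membranes were prepared from BHK tk′ts 13 cells transiently transfected with rat calcitonin receptor. Cells were grown in DMEM with 10% FBS and harvested approximately 48 hours after transfection.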

[2] = molecular target: T3, rat amylin receptor (rat calcitonin receptor + rat RAMP 3) (Rattus norvegicus, UniProt P32214+Q9JJ73); experiment: ASSAY (VI) binding to the rat amylin receptor
T3 construct: expressed in transfected cells; host or cells: BHK tk'ts 13 (transient, FuGENE 6), membranes
T3 sequence (P32214 25-479 isoform P32214-2 limits assumed): T2 sequence (P32214 25-479 isoform P32214-2 limits assumed)
T3 sequence (Q9JJ73 23-147 partner): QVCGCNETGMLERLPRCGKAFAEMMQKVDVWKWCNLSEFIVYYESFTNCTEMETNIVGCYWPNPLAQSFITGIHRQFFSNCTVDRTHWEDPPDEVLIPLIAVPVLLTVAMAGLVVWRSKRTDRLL
In short: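 This assay measured binding to the rat amylin receptor. BHK tk′ts 13 cells were transiently transfected with the rat calcitonin receptor using FuGENE® 6 (Roche), following the manufacturer's recommendations. About 48 hours after transfection, the cells were harvested and membranes were prepared from them for the binding determination.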

[3] = ASSAY (IV) determination of solubility; assay type: physicochemical
In short: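 Polypeptide in water at […] mixed 1:1 with 100 mM buffers of pH 3.0-8.0 (glycylglycine pH 3-5, bistrispropane pH 6-8). Held 18 h at room temperature, then centrifuged; concentration remaining in solution measured by UPLC.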

CC[C@H](C)[C@H](NC(=O)[C@H](C)NC(=O)CNC(=O)[C@H](Cc1ccccc1)NC(=O)[C@H](CC(N)=O)NC(=O)[C@@H]1CCCN1C(=O)[C@H](CO)NC(=O)[C@H](CO)NC(=O)[C@H](Cc1c[nH]cn1)NC(=O)[C@H](CCCNC(=N)N)NC(=O)[C@H](CC(C)C)NC(=O)[C@H](Cc1ccccc1)NC(=O)[C@H](Cc1c[nH]cn1)NC(=O)[C@H](C)NC(=O)[C@H](CC(C)C)NC(=O)[C@H](CCCNC(=N)N)NC(=O)[C@H](CCC(N)=O)NC(=O)[C@@H](NC(=O)[C@H](C)NC(=O)[C@@H]1CSSC[C@H](NC(=O)[C@@H](N)CCCCNC(=O)CC[C@H](NC(=O)CCCCCCCCCCCCCCCCCCC(=O)O)C(=O)O)C(=O)N[C@@H](CC(N)=O)C(=O)N[C@@H]([C@@H](C)O)C(=O)N[C@@H](C)C(=O)N[C@@H]([C@@H](C)O)C(=O)N1)[C@@H](C)O)C(=O)N1CCC[C@H]1C(=O)N[C@@H](CO)C(=O)N[C@@H](CO)C(=O)N[C@H](C(=O)N[C@@H](CC(N)=O)C(=O)N[C@H](C(=O)NCC(=O)N[C@@H](CO)C(=O)N[C@@H](CC(N)=O)C(=O)N[C@H](C(=O)N[C@@H](Cc1ccc(O)cc1)C(N)=O)[C@@H](C)O)C(C)C)[C@@H](C)O [Example 70] (H-K([γGlu-C20 diacid])CNTATCATQRLAHFLRHSSPNFGAIPSSTNVGSNTY-NH2; disulfide 2-7; N-terminus assumed)
IC50 ([1]; Table 4, read-out: hAmylin-R bind IC50): 0.169 nM | Ratio hCT/hAmylin binding ([1]; Table 5, selectivity, hCTR bind IC50 / hAmylin-R bind IC50): 60.8 | Ratio hCT/hAmylin binding ([1]; Table 5a, selectivity, hCTR bind IC50 / hAmylin-R bind IC50): 60.8 | Ratio hCT/hAmylin binding ([1]; Table 5b, selectivity, hCTR bind IC50 / hAmylin-R bind IC50): 60.8 | Ratio hCT/hAmylin binding ([1]; Table 5c, selectivity, hCTR bind IC50 / hAmylin-R bind IC50): 60.8 | Ratio hCT/hAmylin binding ([1]; Table 7, human binding selectivity, included for comparison): 60.8 | Ratio hCT/hAmylin binding ([1]; Table 7a (preferred compounds), human binding selectivity, included for comparison): 60.8 | Ratio hCT/hAmylin binding ([1]; ratio of human calcitonin receptor binding IC50 to human amylin receptor binding IC50): 60.8 | IC50 (rat calcitonin receptor): 34.2 nM | IC50 ([2]; Table 7, binding to rat amylin receptor, read-out: rAmylin-R bind IC50): 0.355 nM | Ratio rCT/rAmylin binding ([2]; Table 7, rat binding selectivity, rCTR IC50 / rAmylin-R IC50): 96.5 | Ratio rCT/rAmylin binding ([2]; Table 7a (preferred compounds), rat binding selectivity, rCTR IC50 / rAmylin-R IC50): 96.5 | Ratio rCT/rAmylin binding ([2]; ratio of rCTR bind IC50 to rAmylin-R bind IC50): 96.5 | solubility at 18 h ([3]; bistrispropane buffer, pH 6.5, read-out: Solubility pH 6.5 Concentration): ≥ 200 µM | solubility at 18 h ([3]; bistrispropane buffer, pH 7.5, read-out: Solubility pH 7.5 Concentration): ≥ 200 µM | solubility at 18 h ([3]; bistrispropane buffer, pH 6.0, read-out: Solubility pH 6.0 Concentration): ≥ 200 µM | solubility at 18 h ([3]; bistrispropane buffer, pH 7.0, read-out: Solubility pH 7.0 Concentration): ≥ 200 µM | solubility at 18 h ([3]; bistrispropane buffer, pH 8.0, read-out: Solubility pH 8.0 Concentration): ≥ 200 µM | solubility at 18 h ([3]; glycylglycine buffer, pH 3.0, read-out: Solubility pH 3.0 Concentration): ≥ 200 µM | solubility at 18 h ([3]; glycylglycine buffer, pH 4.0, read-out: Solubility pH 4.0 Concentration): ≥ 200 µM | solubility at 18 h ([3]; glycylglycine buffer, pH 5.0, read-out: Solubility pH 5.0 Concentration): ≥ 200 µM
